The subject of test [1] is Pseudomonas aeruginosa. In words: Antibiofilm activity against Pseudomonas aeruginosa assessed as reduction in biofilm formation incubated for 24 hrs relative to control. In kind it is functional. Also noted: scale not given: the % may be the effect or the level left.
Test [2] concerns Pseudomonas aeruginosa. Description: Antimicrobial activity against Pseudomonas aeruginosa assessed as reduction in microbial growth. Format: functional, organism-based.
The test system of test [3] is Pseudomonas aeruginosa. In words: Downregulation of pqsA mRNA expression in Pseudomonas aeruginosa PAO1. In kind it is functional.
Test [4] has as its system Pseudomonas aeruginosa. In words: Antibacterial activity against Pseudomonas aeruginosa PAO1 by broth microdilution method. Format: functional. For orientation: Dilution methods test growth across graded concentrations, often in twofold steps.
In test [5] the test system is Pseudomonas aeruginosa. Description: Antibiofilm activity against Pseudomonas aeruginosa PAO1 assessed as inhibition of biofilm formation at 16 ug/ml incubated for 24 hrs by crystal violet staining based assay relative to control. In kind it is functional. Also noted: scale not given: the % may be the effect or the level left. The note with it: dose 16 µg/ml.
For test [6], the system named is Pseudomonas aeruginosa. Description: Downregulation of pqsR mRNA expression in Pseudomonas aeruginosa PAO1. Format: functional.
The test system of test [7] is Pseudomonas aeruginosa. Description: Antibacterial activity against Pseudomonas aeruginosa ATCC 27853 assessed as bacterial growth inhibition by agar diffusion assay. In kind it is functional. (In general: A growth-free zone around the sample is the usual read-out of agar diffusion tests.)
Test [8] has as its system Pseudomonas aeruginosa. Description: Antibacterial activity against Pseudomonas aeruginosa ATCC 27853. In kind it is functional, organism-based.
In test [9] the test system is Pseudomonas aeruginosa. Description: Antibiofilm activity against Pseudomonas aeruginosa PAO1 assessed as reduction in biofilm formation at 16 ug/ml incubated for 2 to 4 hrs by crystal violet staining based analysis relative to control. Format: functional. Also noted: scale not given: the % may be the effect or the level left. The note with it: dose 16 µg/ml; time 2-4 hrs.

In test [10] the test system is Pseudomonas aeruginosa. In words: Downregulation of lasR mRNA expression in Pseudomonas aeruginosa PAO1 at 16 ug/ml relative to control. In kind it is functional. As to conditions: dose 16 µg/ml.
Test [11] deals with Pseudomonas aeruginosa. Description: Downregulation of lasI mRNA expression in Pseudomonas aeruginosa PAO1 at 16 ug/ml relative to control. In kind it is functional. As to conditions: dose 16 µg/ml.
Test [12] deals with Pseudomonas aeruginosa. Description: Downregulation of rhlR mRNA expression in Pseudomonas aeruginosa PAO1 at 160 ug/ml incubated for 6 hrs by RT-qPCR analysis relative to control. Format: functional. The note with it: dose 160 µg/ml. (In qPCR the cycle at which signal appears reflects the starting amount.)
The test system of test [13] is Pseudomonas aeruginosa. In words: Antibiofilm activity against Pseudomonas aeruginosa PAO1 assessed as inhibition of biofilm formation at 1 to 100 uM incubated for 24 hrs by crystal violet staining based assay relative to control. Format: functional. Details: scale not given: the % may be the effect or the level left. The note with it: dose 1-100 µM.
Test [14] deals with Pseudomonas aeruginosa. In words: Antibiofilm activity against Pseudomonas aeruginosa ATCC 27853 assessed as inhibition of biofilm formation at 8 microg/ml incubated for 24 hrs by crystal violet staining based analysis relative to control. Details: scale not given: the % may be the effect or the level left. In kind it is functional. As to conditions: dose 8 µg/ml.
Test [15] deals with Pseudomonas aeruginosa. In words: Anti-virulence effect in Pseudomonas aeruginosa PAO1 assessed as inhibition of rhamnolipid production at 10 uM relative to control. Details: scale not given: the % may be the effect or the level left. In kind it is functional.
Test [16] has as its system Pseudomonas aeruginosa. In words: Antivirulence activity against Pseudomonas aeruginosa PAO1 assessed as inhibition of pyocyanin production at 16 ug/ml relative to control. Format: functional. Details: scale not given: the % may be the effect or the level left. As to conditions: dose 16 µg/ml.
The subject of test [17] is Pseudomonas aeruginosa. Description: Antibiofilm activity against Pseudomonas aeruginosa PA14 assessed as reduction in biofilm formation. Format: functional.
Test [18] has as its system Pseudomonas aeruginosa. Description: Antibiofilm activity against Pseudomonas aeruginosa PAO1 assessed as inhibition of biofilm formation incubated for 24 hrs by crystal violet staining based assay. In kind it is functional, organism-based. As to conditions: PAO1, 24 h.
Test [19] deals with Pseudomonas aeruginosa. Description: Anti-virulence activity in Pseudomonas aeruginosa PAO1 assessed as reduction in pyoverdine production at 160 ug/ml by absorbance based analysis relative to control. Format: functional. Also noted: scale not given: the % may be the effect or the level left. The note with it: dose 160 µg/ml.
Test [20] deals with Pseudomonas aeruginosa. In words: Antivirulence activity in Pseudomonas aeruginosa PAO1 assessed as reduction in pyocyanin production at 10 uM incubated for 24 hrs by absorbance based analysis relative to control. Format: functional. Also noted: scale not given: the % may be the effect or the level left.
The nature of test [21]: Inhibition of quorum sensing system in Pseudomonas aeruginosa PAO1 expressing lasB-gfp at 16 uM relative to control.
For test [22], the system named is Pseudomonas aeruginosa. Description: Downregulation of lasA mRNA expression in Pseudomonas aeruginosa PAO1 at 160 ug/ml incubated for 6 hrs by RT-qPCR analysis relative to control. In kind it is functional. As to conditions: dose 160 µg/ml.
Test [23] has as its system Pseudomonas aeruginosa. Description: Antivirulence activity against Pseudomonas aeruginosa PAO1 assessed as reduction in pyocyanin production at 20 ug/ml relative to control. Format: functional. Details: scale not given: the % may be the effect or the level left. As to conditions: dose 20 µg/ml.
For test [24], the system named is Pseudomonas aeruginosa. In words: Antibacterial activity against Pseudomonas aeruginosa PAO1 assessed as reduction in bacterial growth. Format: functional.
The nature of test [25]: Inhibition of quorum sensing system in Pseudomonas aeruginosa PAO1-rhlA-gfp assessed as inhibition of rhlA expression at 50 ug/ml incubated for 8 hrs by microplate reader based analysis relative to control. The note with it: dose 50.0 µg/ml.
In test [26] the test system is Pseudomonas aeruginosa. In words: Antibiofilm activity against Pseudomonas aeruginosa PAO1 assessed as inhibition of biofilm formation at 16 microg/ml incubated for 20 hrs by crystal violet staining based analysis. Format: functional. Also noted: scale not given: the % may be the effect or the level left. The note with it: dose 16 µg/ml.
Test [27] in a line: Inhibition of quorum sensing system in Pseudomonas aeruginosa PAO1 expressing lasI-gfp assessed as inhibition of lasI expression at 50 ug/ml incubated for 8 hrs under shaking condition by microplate reader based analysis relative to control. As to conditions: dose 50.0 µg/ml.
In test [28] the test system is Pseudomonas aeruginosa. In words: Antivirulence activity in Pseudomonas aeruginosa PAO1 assessed as reduction in elastase production at 10 uM incubated for 24 hrs by elastin-congo red dye based absorbance assay relative to control. Also noted: scale not given: the % may be the effect or the level left. In kind it is functional.
Test [29] has as its system Pseudomonas aeruginosa. Description: Antivirulence activity against Pseudomonas aeruginosa PAO1 assessed as inhibition of rhamnolipid production at 16 ug/ml relative to control. In kind it is functional. Also noted: scale not given: the % may be the effect or the level left. The note with it: dose 16 µg/ml.
Test [30] relates to Pseudomonas aeruginosa. Description: Downregulation of rhlR mRNA expression level in Pseudomonas aeruginosa PAO1 at 200 uM by RT-PCR analysis relative to control. In kind it is functional.
Test [31] has as its system Pseudomonas aeruginosa. In words: Downregulation of rhlI mRNA expression level in Pseudomonas aeruginosa PAO1 at 200 uM by RT-PCR analysis relative to control. Format: functional.
Test [32] has as its system Pseudomonas aeruginosa. Description: Downregulation of lasR mRNA expression level in Pseudomonas aeruginosa PAO1 at 200 uM by RT-PCR analysis relative to control. In kind it is functional.
For test [33], the system named is Pseudomonas aeruginosa. Description: Antibiofilm activity against Pseudomonas aeruginosa PAO1. In kind it is functional, organism-based.
Test [34] has as its system Pseudomonas aeruginosa. Description: Downregulation of lasI mRNA expression level in Pseudomonas aeruginosa PAO1 at 200 uM by RT-PCR analysis relative to control. Format: functional.

Values after ≈ are worked out from the molar mass of the structure shown. Some results are limits rather than exact numbers.

The term IC50 denotes the midpoint of a concentration-inhibition curve. Turning to `O=C1c2ccc(NS(=O)(=O)c3ccc(Cl)cc3)cc2OC2C=C(O)C=C(O)C12` (stereo not drawn), in the test with Pseudomonas aeruginosa [1], the Activity is on record as 50%. Besides, the IC50 in the test with Pseudomonas aeruginosa [2] was determined as 100 µM.
As for `Cc1nc2ccccc2nc1CSc1nc2ccccc2c(=O)n1-c1ccc(F)cc1`, the figures for the Activity in the test on Pseudomonas aeruginosa [3], with Pseudomonas aeruginosa [5] and in the test on Pseudomonas aeruginosa [6] were 90%, 46.37% and 90%, respectively. In the test with Pseudomonas aeruginosa [4], this compound gave an MIC of 500 µM (≈ 214 µg/mL).
In the case of `COc1ccc(C(=O)CSc2nc3ccccc3s2)c(OC)c1`, the MIC in the test with Pseudomonas aeruginosa [7] was greater than 512 µg/mL. The same compound had a half-maximal inhibitory concentration (IC50) in the test with Pseudomonas aeruginosa [8] of 45.5 µg/mL (≈ 132 µM).
Take `C=CCc1ccc(O)c(OC)c1` [EUGENOL]: the Activity with Pseudomonas aeruginosa [9] is listed as 50%; in the test with Pseudomonas aeruginosa [10], 51%; in the test on Pseudomonas aeruginosa [11], 52%; with Pseudomonas aeruginosa [12], 65%.
In the case of `Oc1ccc2c(c1)OC[C@](O)(Cc1ccc(O)c(O)c1)[C@H]2O` [SAPPANOL], in the test on Pseudomonas aeruginosa [13], the Activity turned out to be 54.26%.
As to `c1cc2c(cc1[C@H]1OC[C@H]3[C@@H]1CO[C@@H]3c1ccc3c(c1)OCO3)OCO2` [SESAMIN], the Activity stood at 92% in the test on Pseudomonas aeruginosa [14], 51.31% with Pseudomonas aeruginosa [15] and 87% in the test on Pseudomonas aeruginosa [16]. Further, the MIC in the test with Pseudomonas aeruginosa [17] worked out at 75 µg/mL (≈ 212 µM).
For the compound `CCCCCCCCn1ccnc1`, the IC50 in the test on Pseudomonas aeruginosa [18] amounted to 0.74 µM. Moreover, the results for the Activity in the test on Pseudomonas aeruginosa [19] and in the test on Pseudomonas aeruginosa [20] were 88% and 97.37%, respectively.
With `Oc1ccc([C@H]2Oc3cc(O[C@H]4OC[C@@H](O)[C@@H](O)[C@@H]4O)cc(O)c3C[C@H]2O)cc1O`, in the test with Pseudomonas aeruginosa [13], the Activity is reported as 66%.
What is called inhibition is the percentage by which the read-out fell short of the control. In [21], `CCCCC/C=C\C/C=C\CCCCCCCC(=O)O` showed an inhibition of 41%.
For the compound `c1cc2c(cc1O[C@H]1OC[C@H]3[C@@H]1CO[C@@H]3c1ccc3c(c1)OCO3)OCO2` [SESAMOLIN], the Activity with Pseudomonas aeruginosa [14] stood at 97%; in the test on Pseudomonas aeruginosa [22] it was 53.95%; in the test with Pseudomonas aeruginosa [15], 42%; in the test on Pseudomonas aeruginosa [16], 79%. Also, in the test with Pseudomonas aeruginosa [17], the MIC worked out at 150 µg/mL (≈ 405 µM).
As to `O=C(CCc1ccc(Br)cc1)NC1CCOC1=O` (stereo not drawn), the Activity with Pseudomonas aeruginosa [23] turned out to be 19%; with Pseudomonas aeruginosa [26] it was 48%; with Pseudomonas aeruginosa [28], 44%. Also, the MIC in the test with Pseudomonas aeruginosa [24] came out at 10 µM (≈ 3.12 µg/mL). In addition, the values for the inhibition in [25] and in test [27] were 80% and 87%, respectively.
For `COc1ccc([C@H](CNC(=O)Nc2ccccc2F)c2c[nH]c3ccccc23)cc1OC`, the Activity is 90% in the test on Pseudomonas aeruginosa [3]; 66.4% in the test with Pseudomonas aeruginosa [29]; 74.27% with Pseudomonas aeruginosa [16]; 67.32% in the test with Pseudomonas aeruginosa [5]; 90% with Pseudomonas aeruginosa [6]. The same compound returned an MIC against Pseudomonas aeruginosa [4] of 500 µM (≈ 217 µg/mL).
As for `CCCCCCn1ccnc1`, the Activity in the test on Pseudomonas aeruginosa [19] is 60%; in the test on Pseudomonas aeruginosa [20], 97%.
Take `O=c1cc(-c2ccc(O)c(O)c2)oc2cc(O)cc(O)c12` [LUTEOLIN]: the Activity in the test on Pseudomonas aeruginosa [30], in the test with Pseudomonas aeruginosa [31], in the test with Pseudomonas aeruginosa [32] and in the test with Pseudomonas aeruginosa [34] was 98% throughout. For the same compound, in the test with Pseudomonas aeruginosa [33], the IC50 was found to be 50 µM.
As for `O=C1c2ccc(NS(=O)(=O)c3ccc(F)cc3)cc2OC2C=C(O)C=C(O)C12` (stereo not drawn), the Activity in the test with Pseudomonas aeruginosa [1] turned out to be 78%. Moreover, the 50% inhibitory concentration (IC50) with Pseudomonas aeruginosa [2] worked out at 100 µM.

The values are drawn from ChEMBL document CHEMBL6153025, “Multidrug-resistant bacteria quorum-sensing inhibitors: A particular focus on Pseudomonasaeruginosa” (Eur J Med Chem, 2025).
